# Data published in article PMC6006285, “Specific stereochemistry of OP-1074 disrupts estrogen receptor alpha helix 12 and confers pure antiestrogenic activity” (Nature Communications, 2018).
# Values joined by “and” are separate entries in the source; they are usually repeats but may differ in a detail not shown here. Identical values can stand only once. Like-named read-outs stand apart in the source and are kept apart here.
# Columns and labels:
# [1] = target: T1, B-isoform of the progesterone receptor (PR-B) (Homo sapiens, UniProt P06401); assay: PRE3X-TATA-Luc reporter in HeLa cells transfected with PR-B; format: cell-based; conditions: alone or + 500 nM MPA, 22 h
# T1 construct: HeLa cells were transfected as above but also with plasmids for full length wild; expressed in transfected cells; host or cells: HeLa
# T1 sequence (P06401 1-933): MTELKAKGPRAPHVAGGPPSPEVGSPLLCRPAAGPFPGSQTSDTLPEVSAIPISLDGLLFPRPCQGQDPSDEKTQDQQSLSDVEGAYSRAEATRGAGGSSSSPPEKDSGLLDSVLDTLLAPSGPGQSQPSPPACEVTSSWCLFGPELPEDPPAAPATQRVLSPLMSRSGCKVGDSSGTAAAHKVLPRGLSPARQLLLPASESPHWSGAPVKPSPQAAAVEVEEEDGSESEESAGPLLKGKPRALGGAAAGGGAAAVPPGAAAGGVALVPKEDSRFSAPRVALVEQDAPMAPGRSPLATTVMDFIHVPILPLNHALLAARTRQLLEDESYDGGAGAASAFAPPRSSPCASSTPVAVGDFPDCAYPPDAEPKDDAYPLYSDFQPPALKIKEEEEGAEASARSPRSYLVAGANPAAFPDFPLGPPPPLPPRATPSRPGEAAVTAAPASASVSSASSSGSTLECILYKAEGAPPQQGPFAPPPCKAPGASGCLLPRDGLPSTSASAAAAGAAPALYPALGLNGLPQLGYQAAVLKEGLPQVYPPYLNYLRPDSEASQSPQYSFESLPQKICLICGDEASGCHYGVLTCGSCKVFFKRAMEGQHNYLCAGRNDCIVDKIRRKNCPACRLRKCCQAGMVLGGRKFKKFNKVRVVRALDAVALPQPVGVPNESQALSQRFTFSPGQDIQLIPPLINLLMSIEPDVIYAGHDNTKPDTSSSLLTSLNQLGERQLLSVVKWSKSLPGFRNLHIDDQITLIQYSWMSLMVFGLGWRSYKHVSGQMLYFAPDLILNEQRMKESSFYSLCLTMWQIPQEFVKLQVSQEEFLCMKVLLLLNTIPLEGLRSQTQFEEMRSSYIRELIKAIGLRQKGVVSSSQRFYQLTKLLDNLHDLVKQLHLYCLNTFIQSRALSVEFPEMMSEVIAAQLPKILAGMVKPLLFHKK
# Procedure: representative experiment. […]
# receptor (AR, (B)), glucocorticoid receptor (GR, (C)), and the B-isoform of the progesterone receptor (PR-B, (D)). HeLa cells were transfected with the designated wild type receptor along with reporter gene PRE3X-TATA-Luc, which is promiscuously activated with known agonists specific for each receptor: R1881 for AR, dexamethasone (Dex) for GR, and medroxyprogesterone acetate (MPA) for PR-B. Each receptor was also dosed with one concentration of known antagonist for each receptor: 32 nM bicalutamide for AR, and 500 nM RU486 for GR and PR. Transfected cells were treated with the designated ligands for 22 hours and luciferase activity assayed. Shown are representative experiments, independently performed at least 3 times. Note that curves for agonists for each receptor were performed in separate experiments. Shown are means with SEM, normalized to percent of 32 nM R1881 for AR, 32 nM Dex for GR, and 0.5 µM MPA for PR-B (except with MPA alone, which was normalized to […]
# either ERα or ERβ, and 85 ng ERE-3x-Luc, containing 3 copies of estrogen-response element (ERE) cloned into pGL4.23 luciferase reporter gene containing a minimal TATA promoter […]
# hours (1.25% total final charcoal dextran stripped FBS). Bright Glo luciferase reagent (Promega) […]
# [2] = target: T2, Estrogen Receptor α LBD (ERα) (Homo sapiens, UniProt P03372); assay: Competitive ligand binding assay with [3H]-E2; conditions: 10 nM [3H]-E2 tracer, 2 nM biotinylated ERα LBD; representative experiment
# T2 construct: 2 nM biotinylated Estrogen Receptor α LBD (ERα) was incubated; biotin (biotinylated)
# T2 sequence (P03372 311-547 limits assumed): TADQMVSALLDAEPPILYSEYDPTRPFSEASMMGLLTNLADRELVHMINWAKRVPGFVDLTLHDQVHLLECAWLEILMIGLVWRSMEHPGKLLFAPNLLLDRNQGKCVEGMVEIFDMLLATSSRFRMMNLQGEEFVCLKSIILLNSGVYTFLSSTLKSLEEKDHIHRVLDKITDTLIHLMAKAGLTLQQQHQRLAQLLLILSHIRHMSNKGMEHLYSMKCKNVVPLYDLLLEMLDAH
# Procedure: Experimental data points are mean + /− s.e.m. of triplicate samples in a representative experiment. […] Experimental data points are mean + /− s.d. of triplicate samples in a representative experiment
# Triplicate reactions were vortexed and 100 μL was added in triplicate to a 96-well streptavidin flashplate (Perkin Elmer #SMP103001PK), which incubated overnight at 4 °C prior to reading.
# MCF7/HER2/neu tumors = tested on: MCF7/HER2/neu tumors
# Procedure: MCF7/HER2/neu cells were grown in culture and implanted into 6–7 week athymic ovariectomized female nu/nu mice (Taconic Biosciences). To stimulate tumor growth, 0.18 mg estradiol 90 day release pellets (Innovative Research) were implanted along with cells. […] Tumor volume and bodyweight were measured twice weekly. At end of the study animals were euthanized, tumors resected and snap frozen in liquid nitrogen, and uteri were resected, weighed, and fixed in 10% formalin.
# [3] = Pharmacokinetics in mouse plasma at conclusion of xenograft study; format: in vivo
# [4] = number of 10 tumors at end of study, OP-1074 100 mg/kg oral twice daily, fulvestrant 100 mg/kg subcutaneous daily
# [5] = female, athymic nude, mouse plasma, final dose, 100 mg/kg oral gavage twice daily
compound,measurement,setting,value
CC1=C(c2ccc(O)cc2)[C@H](c2ccc(OCCN3CC[C@@H](C)C3)cc2)Oc2cc(O)ccc21 [OP-1074],Agonist and antagonist activity on PR-B,[1],lacks agonist and antagonist activity
same,IC50,[2],7 nM and 7.03 nM
same,Tolerability,"MCF7/HER2/neu tumors; nude mice, 100 mg/kg dosed twice a day by oral gavage",well-tolerated with no adverse effects on behavior or mouse bodyweight
same,Tumors shrunk / growth inhibited by >50%,MCF7/HER2/neu tumors; [4],all ten
same,Tumors shrunk >80%,MCF7/HER2/neu tumors; [4],9/10
same,Cmax,"[3]; female, athymic nude, oral, 100 mg/kg, mouse plasma, final dose, over a 24-h period, read-out: Cmax (Fig. 7c)",1280 ng/mL
same,AUC,[3]; [5],8200 ng·h/mL
same,Tmax,[3]; [5],1.5 h
same,half-life,[3]; [5],3.01 h
same,Cmax,"[3]; female, athymic nude, mouse plasma, final dose, 100 mg/kg oral gavage twice daily, read-out: Cmax",1300 ng/mL
same,Oral bioavailability,"[3]; mouse, 100 mg/kg oral gavage twice daily",good oral bioavailability
